From patent US20230406850A1, “CRYSTALLINE FORM OF HETEROCYCLIC COMPOUND, PREPARATION METHOD THEREFOR AND APPLICATION THEREOF” (WUHAN LL SCIENCE AND TECHNOLOGY DEVELOPMENT CO., LTD., priority 2020, published 2023)
In brackets after ≈: the same amount, converted by molar mass. Where two headings read alike, the source gives them in different places.

Tests used:
[1] = Pharmacokinetics of crystalline form III, fasting and non-fasting; assay type: in vivo, Beagle dog; conditions: for AUC(0-inf) / Cmax / MRT last / Tmax / half-life / AUC(0-t): beagle, dog, po, 100 mg/kg, 100 mg/kg po
Procedure: Beagle dog (general grade, Beijing Masi Biotechnology Co., Ltd.) was given compound A by single oral gavage to study the pharmacokinetics of the compound in plasma. The test drug (100 mg/kg dosage, 5 mL/kg administration volume) was given by gavage, and samples were collected at 10 minutes, 30 minutes, 1 hour, 2 hours, 4 hours, 6 hours, 8 hours, 10 hours, 24 hours and 48 hours after administration: peripheral venipuncture was performed, and about 1.0 mL whole blood was collected from each animal at every time point, and blood samples were collected. Within 60 minutes after blood collection, 0.2 mL of whole blood was separated into a cryopreservation tube, and deionized water was added at a ratio of 1:1, which was mixed upside down and then frozen. The remaining samples were centrifuged at 2,000 g at 2 to 8° C. for 10 min to obtain plasma samples, and the hemolysis of each sample was recorded, and the influence on detection was evaluated, and then the color of plasma was observed and recorded on the blood collection table (“−” means no hemolysis, “+” means pink supernatant and “++” means red supernatant).
The concentration of compound A in plasma was determined by LC-MS/MS method (Non-GLP). The pharmacokinetic parameters were calculated by WinNonlin (Phoenix™, version 8.1) or other similar software. If applicable plasma drug concentration-time data are available, the following pharmacokinetic parameters are calculated: CL (clearance), Vss (steady-state apparent volume of distribution), T1/2 (elimination half-life), Cmax (peak concentration), Tmax (peak time), AUC (area under the concentration-time curve), MRT (mean residence time). Pharmacokinetic data were described by descriptive statistics, such as mean, standard deviation and sample size.

[2] = Stability of crystalline form III slurried in DMSO/water mixed solvents; assay type: physicochemical; conditions: for The experimental results (crystalline form): slurried three days at room temperature
[3] = Solid form change on dehydration, drying or ambient humidity (XRPD); assay type: physicochemical; conditions: heating to dehydration, then ambient humidity
Source text: Combined with DSC and TGA pattern, it can be seen that the product is hydrate with about 0.34 water molecules.

[4] = Solubility in biological media SGF, FaSSIF and FeSSIF; assay type: physicochemical
Procedure: Compared with other crystalline forms, crystalline forms I, III and V show good solid properties, so their solubility was tested respectively.
10 mg of the sample was weighed, and then 2.0 mL of biological media buffer (i.e. the target concentration is 5 mg/mL) was added to form a suspension. The mixture was put in a constant temperature water bath shaker (37° C., 100 rpm), and sampled 500 μL at 0.5, 2 and 24 hours respectively. After filtration, the pH value and HPLC concentration of filtrate were tested respectively, and the solid sample obtained by filtration was tested by XRPD.

[5] = Physical and chemical stability (stability boxes, XRPD and HPLC); assay type: physicochemical; conditions: for Purity -7 days (peak area %) / XRPD: 7 days
Procedure: About 10 mg of crystalline forms I, III and V were placed in the stability boxes at 40° C./75% RH (open) and 60° C. (covered) for seven days, and some samples were taken out for XRPD and HPLC tests at 0 and 7 days, respectively, to investigate their physical and chemical stability.

[6] = Mechanical stability test (grinding and pelleting); assay type: physicochemical
Procedure: The mechanical stability of crystalline forms I and III were investigated by grinding and pelleting. Grinding test method: the sample to be measured was put in a mortar and grinded for 2 minutes and 5 minutes respectively, then XRPD was test, and the changes of crystalline form and crystallinity were observed. Pelleting test method: the sample was placed in the die of tablet press, kept at 40 MPa for one minute, and then the crystalline form taken out to test XRPD.

[7] = female, whole blood, Non-fast, blood
[8] = female, whole blood, fast, blood
[9] = male, whole blood, Non-fast, blood

SMILES: COC(=O)N1CCO[C@@H](Cc2c(-c3c(F)cc(S(N)(=O)=O)cc3F)nc3cc(Cl)ccn23)C1 [Crystalline form III, methyl (S)-2-((7-chloro-2-(2,6-difluoro-4-sulfamoylphenyl)imidazo[1,2-a]pyridin-3-yl)methyl)morpholine-4-carboxylate]
- blood: plasma ([1]; fasting condition, female): 521%
- blood: plasma ([1]; fasting condition, male (first value)): 1452%
- plasma drug concentration, male relative to female ([1]; fasting condition, plasma): about 6 times
- whole blood drug concentration, male relative to female ([1]; fasting condition, whole blood): 1.9 times
- AUC(0-inf) ([1]; female, plasma, Non-fast): 466 µg·h/mL
- Cmax ([1]; female, plasma, Non-fast): 24000 ng/mL
- MRT last ([1]; female, plasma, Non-fast): 12.6 h
- Tmax ([1]; female, plasma, Non-fast): 7.33 h
- half-life ([1]; female, plasma, Non-fast): 5.14 h
- AUC(0-t) ([1]; female, plasma, Non-fast, plasma, female, read-out: AUC0-24 h): 378 µg·h/mL
- AUC(0-t) ([1]; female, plasma, Non-fast, plasma, female, read-out: AUClast): 465 µg·h/mL
- AUC(0-inf) ([1]; female, plasma, fast): 9.21 µg·h/mL
- Cmax ([1]; female, plasma, fast): 1680 ng/mL
- MRT last ([1]; female, plasma, fast): 8.06 h
- Tmax ([1]; female, plasma, fast): 1.33 h
- half-life ([1]; female, plasma, fast): 12 h
- AUC(0-t) ([1]; female, plasma, fast, plasma, female, read-out: AUC0-24 h): 7.54 µg·h/mL
- AUC(0-t) ([1]; female, plasma, fast, plasma, female, read-out: AUClast): 8.16 µg·h/mL
- AUC(0-inf) [1, 7]: 955 µg·h/mL
- Cmax [1, 7]: 23500 ng/mL
- MRT last [1, 7]: 18.7 h
- Tmax [1, 7]: 6 h
- half-life [1, 7]: 25.1 h
- AUC(0-t) ([1]; female, whole blood, Non-fast, blood, female, read-out: AUC0-24 h): 432 µg·h/mL
- AUC(0-t) ([1]; female, whole blood, Non-fast, blood, female, read-out: AUClast): 675 µg·h/mL
- AUC(0-inf) [1, 8]: 242 µg·h/mL
- Cmax [1, 8]: 10300 ng/mL
- MRT last [1, 8]: 14.1 h
- Tmax [1, 8]: 1.83 h
- half-life [1, 8]: 22.4 h
- AUC(0-t) ([1]; female, whole blood, fast, blood, female, read-out: AUC0-24 h): 134 µg·h/mL
- AUC(0-t) ([1]; female, whole blood, fast, blood, female, read-out: AUClast): 187 µg·h/mL
- AUC(0-inf) ([1]; male, plasma, Non-fast): 367 µg·h/mL
- Cmax ([1]; male, plasma, Non-fast): 18900 ng/mL
- MRT last ([1]; male, plasma, Non-fast): 11.8 h
- Tmax ([1]; male, plasma, Non-fast): 4.67 h
- half-life ([1]; male, plasma, Non-fast): 5.33 h
- AUC(0-t) ([1]; male, plasma, Non-fast, plasma, male, read-out: AUC0-24 h): 305 µg·h/mL
- AUC(0-t) ([1]; male, plasma, Non-fast, plasma, male, read-out: AUClast): 366 µg·h/mL
- AUC(0-inf) ([1]; male, plasma, fast): 40.2 µg·h/mL
- Cmax ([1]; male, plasma, fast): 5700 ng/mL
- MRT last ([1]; male, plasma, fast): 13.6 h
- Tmax ([1]; male, plasma, fast): 9 h
- AUC(0-t) ([1]; male, plasma, fast, plasma, male, read-out: AUC0-24 h): 48.8 µg·h/mL
- AUC(0-t) ([1]; male, plasma, fast, plasma, male, read-out: AUClast): 81.4 µg·h/mL
- AUC(0-inf) [1, 9]: 818 µg·h/mL
- Cmax [1, 9]: 19000 ng/mL
- MRT last [1, 9]: 18.9 h
- Tmax [1, 9]: 4.67 h
- half-life [1, 9]: 28.6 h
- AUC(0-t) ([1]; male, whole blood, Non-fast, blood, male, read-out: AUC0-24 h): 353 µg·h/mL
- AUC(0-t) ([1]; male, whole blood, Non-fast, blood, male, read-out: AUClast): 557 µg·h/mL
- AUC(0-inf) ([1]; male, whole blood, fast, blood): 521 µg·h/mL
- Cmax ([1]; male, whole blood, fast, blood): 14600 ng/mL
- MRT last ([1]; male, whole blood, fast, blood): 19.5 h
- Tmax ([1]; male, whole blood, fast, blood): 9.33 h
- half-life ([1]; male, whole blood, fast, blood): 14.9 h
- AUC(0-t) ([1]; male, whole blood, fast, blood, male, read-out: AUC0-24 h): 255 µg·h/mL
- AUC(0-t) ([1]; male, whole blood, fast, blood, male, read-out: AUClast): 449 µg·h/mL
- blood: plasma ([1]; non-fasting condition, female): 116%
- blood: plasma ([1]; non-fasting condition, male (first value)): 114%
- The experimental results (crystalline form) ([2]; DMSO/Water 1/2 V/V): Crystalline form III
- The experimental results (crystalline form) ([2]; DMSO/Water 1/4 V/V): Crystalline form III
- The experimental results (crystalline form) ([2]; DMSO/Water 2/3 V/V): Crystalline form III
- water content of DMSO/water in which the form is stable without crystal transformation ([2]; room temperature): higher than 60 % (volume percentage)
- crystalline form after dehydration [3]: becomes crystalline form III again
- XRPD of remaining solid ([4]; FaSSIF, 0.5 h): Unchanged
- pH of filtrate ([4]; FaSSIF, 0.5 h): 6.4
- Solubility ([4]; FaSSIF, 0.5 h, 37° C.): 23 µg/mL (≈ 45.9 µM)
- XRPD of remaining solid ([4]; FaSSIF, 2 h): Unchanged
- pH of filtrate ([4]; FaSSIF, 2 h): 6.4
- Solubility ([4]; FaSSIF, 2 h, 37° C.): 25 µg/mL (≈ 49.9 µM)
- XRPD of remaining solid ([4]; FaSSIF, 24 h): Unchanged
- pH of filtrate ([4]; FaSSIF, 24 h): 6.4
- Solubility ([4]; FaSSIF, 24 h, 37° C.): 33 µg/mL (≈ 65.9 µM)
- XRPD of remaining solid ([4]; FeSSIF, 0.5 h): Unchanged
- pH of filtrate ([4]; FeSSIF, 0.5 h): 4.9
- Solubility ([4]; FeSSIF, 0.5 h, 37° C.): 74 µg/mL (≈ 148 µM)
- XRPD of remaining solid ([4]; FeSSIF, 2 h): Unchanged
- pH of filtrate ([4]; FeSSIF, 2 h): 4.8
- Solubility ([4]; FeSSIF, 2 h, 37° C.): 88 µg/mL (≈ 176 µM)
- XRPD of remaining solid ([4]; FeSSIF, 24 h): Unchanged
- pH of filtrate ([4]; FeSSIF, 24 h): 4.9
- Solubility ([4]; FeSSIF, 24 h, 37° C.): 120 µg/mL (≈ 240 µM)
- solubility at 0.5 h ([4]; SGF, 37 °C, simulated gastric fluid, thermodynamic from solid, SGF, 0.5 h, 37° C., read-out: Solubility (visual observation)): > 5000 µg/mL
- pH of filtrate ([4]; SGF, 0.5 h): 1.0
- Initial purity (Peak area %) ([5]; 0 days): 99.34 peak area %
- Purity -7 days (peak area %) ([5]; 40° C./75% RH (open)): 99.35 peak area %
- XRPD ([5]; 40° C./75% RH (open)): Constant
- stability conclusion in words ([5]; 40° C./75% RH and 60° C., seven days): good physical and chemical stability
- Purity -7 days (peak area %) ([5]; 60° C. (covered)): 99.35 peak area %
- XRPD ([5]; 60° C. (covered)): Constant
- crystallinity after pelleting ([6]; 40 MPa, 1 min): decreases obviously
- crystalline form and crystallinity after grinding ([6]; grinding 2 min and 5 min): no obvious change in crystalline form and crystallinity
